Source: patent publication US11903926B1, “Non-hormonal treatment of hot flashes” (priority 2012, dated 2024)
Read-outs that look alike come from different tables or passages of the source.

How the values were obtained:
[1] = test system: hot flashes, including vasomotor symptoms of menopause; assay: Observed activity of D2 family agonists tested in controlling hot flashes; type: in vivo; conditions: D2 family members tested to date
[2] = test system: women with dramatic vasomotor hot flashes and sleep disruption; assay: Clinical study of six women with vasomotor hot flashes and sleep disruption, symptoms graded 0-4; type: in vivo; conditions: for effect on sleep (in words) / effect on vasomotor / hot flash symptoms (in words): six women, agent alone; for effect on vasomotor / hot flash symptoms (in words): versus untreated; for Hot Flash Severity: grade 0-4 (duration), average of six women; for Hot Flash Frequency: end of treatment period (up to four weeks), ropinirole 4 mg, tizanidine 4 mg, clonidine 0.1 mg, rotigotine 1 mg, pramipexole 1.5 mg, chlorpromazine 25 mg, haloperidol 1 mg, venlafaxine 75 mg, paroxetine 20 mg, gabapentin 300 mg, pregabilin 50 mg
Experimental: Patients were on each regimen at the doses cited for up to four weeks.
Symptoms were evaluated on a scale from 0 to 4, with 0 being not affected, 1 being mild, 2 being moderate, 3 being severe, and 4 being a very severe expression of either vasomotor symptom frequency, severity, sweating, falling asleep and waking during the night for each patient and evaluated at the end of the treatment period. The findings reported are based on an average of the reported symptoms of the six women studied.
Specifically, regarding hot flash frequency, evaluation was based upon the number of hot flashes per day. The frequency of hot flashes was graded on a scale of 0-4, with 0 as none detected, 1 as 1-4/day (mild), 2 as 5-8/day (moderate), 3 as 9-12/day (severe), and 4 as more than 12/day (very severe).
The severity of the hot flashes, reflecting hot flash duration, was also graded on a scale of 0-4, with 0 being not detected, 1 being mild (less than 1 minute), 2 moderate (1-2 minutes), 3 severe (2-3 minutes), and 4 very severe (greater than 4 minutes). This evaluation reflects the duration and intensity as rated by the individual.
The sweating response was graded on a scale of 0-4 as well, with 0 being not detected, 1 being mild (minimally moist skin), 2 moderate (moisture of the skin), 3 severe (noticeable perspiration, hair, ears, neck, chest), and 4 very severe (soaking sweat).
Falling asleep was also graded on a scale of 0-4, with 0 being no issue (less than 15 minutes), 1 being mild (15-20 minutes), 2 moderate (20-40 minutes), 3 severe (40-60 minutes), and 4 very severe (greater than 60 minutes).
Wakings were graded on a scale of 0-4 as well, with 0 being not detected, 1 being mild (1-5 wakings/night), 2 moderate (5-10 wakings/night), 3 severe (10-15 wakings/night), and 4 very severe (greater than 15 wakings/night).
The D2 receptor family (D2, D3 or D4) agonists ropinirole, rotigotine and pramipexole were examined, and contrasted with D2 receptor family antagonists chlorpromazine or haloperidol. Ropinirole and pramipexole were evaluated alone and with either alpha-2-adrenergic agonist tizanidine or clonidine.
Venlafaxine, paroxetine, gabapentin, and pregabilin were also evaluated in comparison with tizanidine.

[3] = test system: women with menopausal symptoms including hot flashes; conditions: for hot flashes under existing medication: already treated for neuropathic pain and depression; for benefit in sleep cycle: standard sedative hypnotics for insomnia
Experimental: The patients were treated by escalating the dose of ropinirole to 4 mg, testing the hypothesis of a dopaminergically regulated pathway within the central nervous system which impacts hot flashes.
Therefore, the initial dose provided was 1 mg at bedtime, and the dose was raised as needed, every fourth day, to a maximum of 8 mg, if needed, usually at bedtime.
Safety monitoring included making certain there were no issues with liver function, low blood pressure or unusual dreams as this was accomplished. Tizanidine could, if needed, be dosed again during the night without causing a morning “hangover” effect providing there was a four hour sleep window available.
Ropinirole titration was initiated with 0.25 mg at bedtime, and if tolerated, by escalating the dose by 0.25 mg every fourth day to a maximum of 1 mg (i.e., 0.25 mg, 0.50 mg, 0.75 mg, 1 mg), until there was reduction in both the frequency and severity of hot flashes. If higher doses were needed, then both 1 mg, or later 2 mg and both 1 and 2 mg ropinirole tablets were used along with the continued titration by 0.25 mg steps every fourth day until a maximum of 4 mg was reached.

[4] = test system: women with menopausal vasomotor symptoms and sleep disruption; assay: Clinical study of eight women with menopausal vasomotor symptoms and sleep disruption, symptoms graded 1-4; type: in vivo; conditions: for effect on vasomotor symptoms (in words) / effect on sleep (in words): eight women; for effect on sleep (in words): agent alone; for Hot Flash Frequency / Sweating / Wakings / Falling Asleep / Hot Flash Severity: grade 1-4, average of eight women, ropinirole 4 mg, tizanidine 4 mg, ramelteon 8 mg; for Hot Flash Frequency: at bedtime for at least four weeks; for Hot Flash Frequency / Falling Asleep / Hot Flash Severity: untreated = 4; for Sweating / Wakings / Falling Asleep / Hot Flash Severity: at least four weeks; for Sweating / Wakings: untreated = 3
Experimental: Patients were on each regimen at the doses cited for at least four weeks.
Symptoms were evaluated on a scale from 1 to 4, with 1 being mild, 2 being moderate, 3 being severe, and 4 being a very severe expression of either vasomotor symptom frequency, severity, sweating, falling asleep and wakings during the night were evaluated for each patient and evaluate at the end of the treatment period. The findings were based on an average of the reported symptoms of the eight women studied.
Specifically with respect to hot flash frequency, evaluation was based upon the number of hot flashes per day. The frequency of the hot flashes was graded on a scale of 1-4, with 1 as 1-4/day (mild), 2 as 5-8/day (moderate), 3 as 9-12/day (severe), and 4 as more than 12/day (very severe).
The severity of the hot flashes was graded on a scale of 1-4, with 1 being mild (less than 1 minute), 2 moderate (1-2 minutes), 3 severe (2-3 minutes), and 4 very severe (greater than 4 minutes). This evaluation reflects the duration and intensity as rated by the individual.
The sweating response was graded on a scale of 1-4, with 1 being mild (minimally moist skin), 2 moderate (moisture on skin), 3 severe (noticeable perspiration, hair, ears, neck, chest), and 4 very severe (soaking sweat).
Falling asleep was graded on a scale of 1-4, with 1 being mild (15-20 minutes), 2 moderate (20-40 minutes), 3 severe (40-60 minutes), and 4 very severe (greater than 60 minutes).
Wakings were graded on a scale of 1-4, with 1 being mild (1-5 wakings/night), 2 moderate (5-10 wakings/night), 3 severe (10-15 wakings/night), and 4 very severe (greater than 15 wakings/night).

[5] = up to four weeks, untreated = 3
[6] = grade 0-4, average of six women, untreated = 3
[7] = patients of the case studies, ropinirole escalated from 0.25 mg to 4 mg at bedtime

## c1cnc(N2CCN(Cc3ccc4c(c3)OCO4)CC2)nc1 [piribedil]
[1]
  activity in controlling hot flashes: unique activity

## Clc1cccc(Cl)c1N=C1NCCN1 [Clonidine, clonidine]
[2]
  effect on sleep (in words): impressive effect on sleep
  effect on vasomotor / hot flash symptoms (in words): very modest reduction in vasomotor symptoms
[3]; patient two
  hot flashes under existing medication: developed these hot flash symptoms despite those medications

## COc1ccc(C(CN(C)C)C2(O)CCCCC2)cc1 (stereo not shown) [Venlafaxine]
[2]
  effect on vasomotor / hot flash symptoms (in words): reduced hot flash symptoms over untreated patients
[3]; patient two
  hot flashes under existing medication: developed these hot flash symptoms despite those medications

## Fc1ccc([C@@H]2CCNC[C@H]2COc2ccc3c(c2)OCO3)cc1 [Paroxetine, paroxetine]
[2]
  effect on vasomotor / hot flash symptoms (in words): reduced hot flash symptoms over untreated patients

## CCCN(CCC)CCc1cccc2c1CC(=O)N2 [Ropinirole, ropinirole]
[1]
  activity in controlling hot flashes: unique activity
[2]; [5]
  Hot Flash Severity: 0
[2]; [6]
  Hot Flash Frequency: 0
[2]
  effect on sleep (in words): limited impact on sleep
  effect on vasomotor / hot flash symptoms (in words): notable reduction in frequency and severity of vasomotor symptoms
[4]
  effect on vasomotor symptoms (in words): notable, but incomplete reduction in frequency and severity of vasomotor symptoms
  effect on sleep (in words): limited impact on sleep
  Hot Flash Frequency: 1 (1 as 1-4/day (mild))
  Sweating: 1
  Wakings: 3 (3 severe (10-15 wakings/night))
  Falling Asleep: 3 (3 severe (40-60 minutes))
  Hot Flash Severity: 1 (1 being mild (less than 1 minute))
[3]; patient one, ropinirole 4 mg daily at bedtime with tizanidine 8 mg
  side effects: without side effects
[3]; patient one, ropinirole 4 mg daily at bedtime with tizanidine 8 mg at bedtime, 15-20 hot flashes per day before
  vasomotor symptoms (hot flashes): totally eliminated the vasomotor symptoms (hot flashes)
[3]; patient three, ropinirole removed (symptoms returned) and re-administered at 4 mg
  hot flashes on re-administration after removal: the hot flashes once again disappeared
[3]; patient two, ropinirole 4 mg at bedtime with tizanidine 8 mg
  side effects: without untoward side effects
[3]; patient two, ropinirole 4 mg at bedtime with tizanidine 8 mg at bedtime, 10-15 hot flashes per day before
  frequency and severity of hot flashes: complete resolution of the frequency and severity of the hot flashes
[3]; [7]
  effect on hot flashes of menopause: dramatic shutdown of previously intolerable hot flashes of menopause
  side effects: without side effects

## NCC1(CC(=O)O)CCCCC1 [Gabapentin, gabapentin]
[2]
  effect on vasomotor / hot flash symptoms (in words): reduced hot flash symptoms over untreated patients
[3]; patient two
  hot flashes under existing medication: developed these hot flash symptoms despite those medications

## CN(C)CCCN1c2ccccc2Sc2ccc(Cl)cc21 [Chlorpromazine, chlorpromazine]
[2]
  effect on vasomotor / hot flash symptoms (in words): aggravated menopausal symptoms

## Clc1ccc2nsnc2c1NC1=NCCN1 [Tizanidine, tizanidine]
[2]
  effect on sleep (in words): impressive effect on sleep
  effect on vasomotor / hot flash symptoms (in words): very modest reduction in vasomotor symptoms
[4]
  effect on vasomotor symptoms (in words): very modest reduction in vasomotor symptoms
  effect on sleep (in words): more impressive effect on sleep
  Hot Flash Frequency: 3 (3 as 9-12/day (severe))
  Sweating: 3
  Wakings: 2 (2 moderate (5-10 wakings/night))
  Falling Asleep: 2 (2 moderate (20-40 minutes))
  Hot Flash Severity: 3 (3 severe (2-3 minutes))
[3]; patient one, tizanidine 8 mg at bedtime
  sleep: facilitate sleep, which it did
[3]; patient three, tizanidine 1 mg raised up to 8 mg at bedtime
  sleep: able to sleep through the night

## O=C1CN=C(c2ccccc2Cl)c2cc([N+](=O)[O-])ccc2N1 [clonazepam]
[3]; patient three
  benefit in sleep cycle: no significant benefit in sleep cycle

## CCCN[C@H]1CCc2nc(N)sc2C1 [Pramipexole]
[2]; [5]
  Hot Flash Severity: 0
[2]; [6]
  Hot Flash Frequency: 0

## Cc1ccc(-c2nc3ccc(C)cn3c2CC(=O)N(C)C)cc1 [zolpidem]
[3]; patient three
  benefit in sleep cycle: no significant benefit in sleep cycle

## CCCN(CCc1cccs1)[C@H]1CCc2c(O)cccc2C1 [Rotigitine, rotigotine]
[1]
  activity in controlling hot flashes: unique activity
[2]; [5]
  Hot Flash Severity: 0
[2]; [6]
  Hot Flash Frequency: 0
[2]; grade 0-4, average of six women, up to four weeks, untreated = 2
  Falling Asleep: 0 (0 being no issue (less than 15 minutes))
[2]; grade 0-4, average of six women, up to four weeks, untreated = 3
  Sweating: 0
[2]; grade 0-4, average of six women, up to four weeks, untreated = 4
  Wakings: 1 (1 being mild (1-5 wakings/night))
[2]
  effect on sleep (in words): limited impact on sleep
  effect on vasomotor / hot flash symptoms (in words): notable reduction in frequency and severity of vasomotor symptoms

## CC(C)(C#N)c1cc(Cn2cncn2)cc(C(C)(C)C#N)c1 [anastrozole]
[3]; patient three, anastrozole 1 mg daily
  effect on hot flashes (side effect of aromatase inhibitor): exacerbated the hot flashes

## CCN(C(C)=O)c1cccc(-c2ccnc3c(C#N)cnn23)c1 [zaleplon]
[3]; patient three
  benefit in sleep cycle: no significant benefit in sleep cycle

## O=C(CCCN1CCC(O)(c2ccc(Cl)cc2)CC1)c1ccc(F)cc1 [Haloperidol, haloperidol]
[2]
  effect on vasomotor / hot flash symptoms (in words): aggravated menopausal symptoms

## CC(C)C[C@H](CN)CC(=O)O [Pregabilin, pregabalin]
[2]
  effect on vasomotor / hot flash symptoms (in words): reduced hot flash symptoms over untreated patients

## CCC(=O)NCC[C@@H]1CCc2ccc3c(c21)CCO3 [Ramelteon, ramelteon]
[4]
  effect on vasomotor symptoms (in words): no impact on vasomotor symptoms
  effect on sleep (in words): only a limited impact on sleep
  Hot Flash Frequency: 4 (4 as more than 12/day (very severe))
  Sweating: 3
  Wakings: 3 (3 severe (10-15 wakings/night))
  Falling Asleep: 3 (3 severe (40-60 minutes))
  Hot Flash Severity: 4 (4 very severe (greater than 4 minutes))

## CN1C(=O)C(O)N=C(c2ccccc2)c2cc(Cl)ccc21 (stereo not shown) [temazepam]
[3]; patient three
  benefit in sleep cycle: no significant benefit in sleep cycle
